Assay results taken from ChEMBL document CHEMBL5724709, “EUbOPEN Chemogenomics Library - IncuCyte” (2024).
“And” between values parts separate entries of the source, which are not always exact repeats. Equal values may be shown once. Peptide text beside a SMILES is read from it. * marks the point of attachment. Cbz = O=C(OCc1ccccc1)*; CH2F = FC*

What was measured:
Assay type in all cases: toxicity, cell-based
[1] = system: Fibroblast; experiment: Incucyte cell viability with human fibroblast; settings: 24 h, 10 µM, compound concentration 10 uM
[2] = system: HEK-293T; experiment: Incucyte cell viability with HEK293T; settings: human, 24 h, 10 µM, compound concentration 10 uM
[3] = system: U2OS; experiment: Incucyte cell viability with U2OS; settings: human, 24 h, 10 µM, compound concentration 10 uM
Further: unitless GR value; below 1 slowed growth and below 0 cell loss.

| SMILES | Growth Rate ([1]; replicate number 1) | Growth Rate ([1]; replicate number 2) | Growth Rate ([2]; replicate number 1) | Growth Rate ([2]; replicate number 2) | Growth Rate ([3]; replicate number 1) | Growth Rate ([3]; replicate number 2) |
| --- | --- | --- | --- | --- | --- | --- |
| COc1cccc(OC)c1S(=O)(=O)Nc1noc2cc(Cn3cccn3)cc(OC)c12 | 0.79 | 1 | 0.71 | 0.55 | 0.39 | 1 |
| CC(C)(O)c1ccc(N2Cc3c(ccnc3-c3ccc(F)cc3OCC(F)(F)F)C2=O)cc1 | 0.68 | 0.44 | 0.87 | 1 | 0.05 | 1 |
| Cc1ccc(N2C(=O)/C(=C/C=C/c3ccco3)C(=O)NC2=S)cc1Cl | 0.45 | 1 | 0.94 | 1 | 1 |  |
| COc1ccc2nc3[nH]nc(C)c3c(NCCOCCO)c2c1 | 0.52 | 0.43 | 0.57 | 0.77 | 0.89 | 1 |
| CC(C)Nc1cc(-c2c[nH]c(C(=O)N[C@H](CO)c3cccc(Cl)c3)c2)c(Cl)cn1 [ULIXERTINIB] | 0.93 | 0.08 | 1 |  | 0.68 | 0.74 |
| O=C1/C(=N/Nc2ccc(S(=O)(=O)O)cc2)C(c2ccc([N+](=O)[O-])cc2)=NN1c1ccccc1 | 1 |  | 0.59 | 1 | 0.88 | 1 |
| Cn1cc(NC(=O)c2cc(F)cc(F)c2)c(C(=O)NC2CCNCC2)n1 | 0.67 | 1 | 0.67 | 0.9 | 0.63 | 0.71 |
| CNC(=O)O[C@H]1COc2ccc(N3CCN(C4COC4)CC3)cc2[C@@H]1NC(=O)c1ccc(F)cc1 | 1 | 0.67 | 0.89 | 0.97 | 1 |  |
| CCn1c(=O)c(C)cn(Cc2nnc(-c3ccc(F)c(O)c3F)s2)c1=O | 0.03 | 1 | 1 | 0.97 | 1 | 0.92 |
| COc1cc(C(C)C)c2c(c1)S(=O)(=O)N(COc1cc(=O)n3cccc(OCCN4CCCCC4)c3n1)C2=O | -0.1 | -0.7 | -0.22 | -0.01 | 0.9 | 1 |
| O=C(NC[C@H](O)CN1CCc2ccccc2C1)c1cc(NC2COC2)ncn1 | 1 | 0.5 | 0.54 | 0.94 | 1 |  |
| CCCC1O[C@@H]2C[C@H]3[C@@H]4CCC5=CC(=O)C=C[C@]5(C)[C@H]4[C@@H](O)C[C@]3(C)[C@]2(C(=O)CO)O1 (stereo partly specified) [BUDESONIDE] | 0.7 | 1 | 0.73 | 0.82 | 1 | 0.58 |
| CNC[C@@H](O)COc1ccc(Cl)c(-c2nc(-c3c(C)noc3C)c(C)c(N3CC4(CCN(C(=O)OC)CC4)C3)n2)c1 | 0.24 | 1 | 0.46 | 0.73 | 1 |  |
| Cc1nc(Nc2ncc(C(=O)Nc3c(C)cccc3Cl)s2)cc(N2CCN(CCO)CC2)n1 [DASATINIB ANHYDROUS] | 1 | 0.23 | -0.16 | 0.04 | -0.47 | -0.3 |
| COc1ccc(/C=C/C(=O)NO)c(-c2ccc(-c3ccccc3)cc2)c1 | -0.1 | -0.52 | 0.41 | 0.49 | -0.07 | 1 |
| CC(=O)Nc1ccc(OC[C@](C)(O)C(=O)Nc2ccc([N+](=O)[O-])c(C(F)(F)F)c2)cc1 | 0.07 | 1 | 0.72 | 0.87 | 1 | 0.76 |
| N[C@@H](CC(=O)N1CCN(C(c2ccc(F)cc2)c2ccc(F)cc2)CC1)C(=O)N1Cc2ccccc2C1 | 1 |  | 0.66 | 0.87 | 1 |  |
| C[C@H](NC(=O)c1cn(C2(C#N)CC2)cn1)C(=O)Nc1nc(-c2cccc(-c3ccn(C)n3)c2)cs1 | 0.43 | 1 | 0.9 | 0.86 | 0.33 | 1 |
| CCCC(NC(=O)C(CC(C)C)NC(=O)OCc1ccccc1)C(=O)C(=O)NCc1ccccn1 (racemic) | 0.96 | 1 | 0.78 | 1 | 1 | 0.89 |
| CC(C)c1cnc(CSc2cnc(NC(=O)C3CCNCC3)s2)o1 | -0.05 | -0.46 | -0.28 | -0.09 | -0.6 | -0.31 |

| SMILES | Growth Rate ([1]; replicate number 1) | Growth Rate ([1]; replicate number 2) | Growth Rate ([2]; replicate number 1) | Growth Rate ([2]; replicate number 2) | Growth Rate ([3]; replicate number 1) | Growth Rate ([3]; replicate number 2) |
| --- | --- | --- | --- | --- | --- | --- |
| O=C(NCC1(c2nc(-c3ccccc3)cs2)CCOCC1)c1cccc(-c2noc(C(F)(F)F)n2)c1 | 1 | 0.44 | 0.36 | 0.64 | 1 |  |
| Nc1cc(F)ccc1NC(=O)c1ccc(CNC(=O)/C=C/c2cccnc2)cc1 [TUCIDINOSTAT] | 1 |  | 1 |  | -0.5 | 0.82 |
| O=C1C(=O)N(Cc2ccccc2)c2ccc(S(=O)(=O)N3CCC[C@H]3COc3ccc(C(F)(F)F)cc3)cc21 | -0.08 | 0.99 | -0.25 | -0.13 | -0.63 | -0.25 |
| N=C(N)N/N=C/c1cccc(Cl)c1Cl | 0.46 | 0.86 | 0.5 | 0.8 | 0.24 | 0.53 |
| COc1cc2c(NCC3CCN(C)CC3)cc(-c3ccc(C)o3)nc2cc1OCCCN1CCCC1 | 0.34 | -0.3 | -0.36 | -0.29 | -0.64 | -0.51 |
| CC(C)C[C@@H](C=O)NC(=O)[C@@H](NS(=O)(=O)c1ccc(F)cc1)C(C)C | 0.96 | 1 | 0.64 | 0.92 | 0.76 | 1 |
| CN1CCc2c(n(Cc3ccc(C(=O)NO)cc3)c3ccccc23)C1 | 1 | 0.54 | 0.89 | 1 | 0.34 | 1 |
| CNC(=O)c1cnc(N2CCC[C@H](N)C2)nc1Nc1cc(C(C)C)nc(C(C)C)c1 | 0.72 | 0.44 | -0.35 | -0.02 | -0.44 | 0.05 |
| O=C(CCCCCCNC(=O)c1cnc(N(c2ccccc2)c2ccccc2)nc1)NO [RICOLINOSTAT] | 0.23 | -0.16 | 0.73 | 1 | 0 | 0.16 |
| O=C(NO)C(c1ccc(-c2ncc(C(F)(F)F)cn2)cc1)c1ccccc1F (stereo unspecified) | 0.37 | -0.57 | -0.14 | 0.69 | 0.6 | 0.81 |
| Cc1cc(OCc2nnc(SC3CCCC3)n2-c2cccnc2)ccc1-c1ccc(S(C)(=O)=O)cc1 | -0.37 | -0.82 | -0.22 |  | -0.5 | -0.4 |
| CC(=O)O[C@]1(C(C)=O)CC[C@H]2[C@@H]3C=C(Cl)C4=CC(=O)[C@@H]5C[C@@H]5[C@]4(C)[C@H]3CC[C@@]21C [CYPROTERONE ACETATE] | 0.21 | 0.15 | 0.61 | 0.76 | 1 | 0.72 |
| CC(=O)N1CCC(Nc2cc(C(=O)NC[C@H](O)CN3CCc4ccccc4C3)ncn2)CC1 [PEMRAMETOSTAT] | 1 |  | 0.9 | 1 | 0.26 | 1 |
| O=C(c1ccc2c(ccn2-c2ccc(F)cc2)c1)N1CC(N2CCN(C(=O)c3nccs3)CC2)C1 | 0.6 | 1 | 0.76 | 0.97 | 0.99 | 0.91 |
| Nc1ccccc1NC(=O)c1ccc(CNC(=O)OCc2cccnc2)cc1 [ENTINOSTAT] | -0.02 | 0.43 | 1 |  | -0.2 | 0.57 |
| CC(C)NCC(O)COC(Cn1c2ccccc2c2ccccc21)Cn1c2ccccc2c2ccccc21 (stereo unspecified) | 1 | 0.03 | 1 |  | -0.53 | 1 |
| NC(=O)c1ccc(Oc2ccc(C(N)=O)cc2)cc1 | 1 |  | 1 |  | 1 |  |
| COC(=O)CC[C@H](NC(=O)[C@H](C)NC(=O)OCc1ccccc1)C(=O)N[C@H](C(=O)N[C@@H](CC(=O)OC)C(=O)CF)C(C)C (Cbz-AE(OMe)VD(OMe)-CH2F) | 0.35 | 1 | 0.7 | 0.98 | 1 |  |
| Cc1ccc(C(=O)NCCCCCC(=O)Nc2ccccc2N)cc1 |  |  | 1 |  |  | 0.95 and 0.84 |
